Assay results from ChEMBL document CHEMBL3621181, “Prokineticin Receptor Modulators May Potentially Treat Psychiatric and Neurological Disorders” (ACS Med Chem Lett, 2015).

Molecular target: Prokineticin receptor 1 (Homo sapiens, UniProt Q8TCW9)
Test: Antagonist activity at human PKR1 expressed in rat RBL2H3 cells assessed as inhibition of PK1-stimulated intracellular calcium release incubated for 10 mins prior to PK1 stimulation by FLIPR assay
Assay type: functional, cell-based, RBL-2H3

Sequence of Prokineticin receptor 1 (Q8TCW9 whole entry): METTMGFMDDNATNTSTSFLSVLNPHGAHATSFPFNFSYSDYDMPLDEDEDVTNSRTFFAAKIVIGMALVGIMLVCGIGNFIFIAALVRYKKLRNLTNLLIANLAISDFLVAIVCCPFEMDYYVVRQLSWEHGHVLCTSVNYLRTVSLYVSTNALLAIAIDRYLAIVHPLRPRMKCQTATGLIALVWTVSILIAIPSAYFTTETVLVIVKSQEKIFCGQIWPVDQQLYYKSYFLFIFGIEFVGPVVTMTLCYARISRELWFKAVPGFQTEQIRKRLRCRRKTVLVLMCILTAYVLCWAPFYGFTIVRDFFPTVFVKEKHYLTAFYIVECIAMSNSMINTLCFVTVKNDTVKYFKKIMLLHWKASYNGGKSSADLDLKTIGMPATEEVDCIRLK

Row | IC50 | SMILES
1 | 320 nM | CC(C)n1c(C2CCCN(C(=O)c3ccnc(N(C)C)c3)C2)nc2ccccc21 (configuration not stated)
2 | > 9000 nM | COC1(c2ncc(Cl)cc2C)CCCN(C(=O)c2cn(C)nc2N)C1 (configuration not stated)
